Results as given in patent publication US10040802B2, “Thienopyrazine inhibitors of IRAK4 activity” (MERCK SHARP & DOHME CORP., priority 2015, dated 2018).
Counter-ions that a name gives are not always drawn.

Biological target: GST tagged IRAK4 (Homo sapiens (Human), UniProt Q9NWZ3)
Assay: IRAK4 Kinase Assay (IMAP fluorescence polarization)
Format: biochemical
Conditions: 0.5 nM GST tagged IRAK4, 100 μM ATP, 30 minutes at 25° C.
Protocol: The kinase activity of IRAK4 is determined by its ability to catalyze the phosphorylation of a fluorescent polypeptide substrate. The extent of phosphorylation is measured using the IMAP technology (Molecular Devices) where the phosphorylated fluorescent substrate binds to the large M(III)-based nanoparticles which reduces the rotational speed of the substrate and thus increases its fluorescent polarization (FP).
20 μL reaction mixture contains 10 mM TriHCl, pH 7.2, 0.5 nM GST tagged IRAK4 (SignalChem), 100 nM fluorescent peptide substrate (RP7030, Molecular Devices), 100 μM ATP, 1 mM DDT, 1 mM MgCl2, and 0.01% Tween 20. The reaction is initiated by the addition of ATP. After incubation for 30 minutes at 25° C., 60 μL of Progressive IMAP Reagent (Molecular Devices) is added to stop the reaction. Change in RP7030's FP is determined by a FP reader (Analyst HT, LJL BioSystems).

GST tagged IRAK4, sequence (Q9NWZ3 whole entry): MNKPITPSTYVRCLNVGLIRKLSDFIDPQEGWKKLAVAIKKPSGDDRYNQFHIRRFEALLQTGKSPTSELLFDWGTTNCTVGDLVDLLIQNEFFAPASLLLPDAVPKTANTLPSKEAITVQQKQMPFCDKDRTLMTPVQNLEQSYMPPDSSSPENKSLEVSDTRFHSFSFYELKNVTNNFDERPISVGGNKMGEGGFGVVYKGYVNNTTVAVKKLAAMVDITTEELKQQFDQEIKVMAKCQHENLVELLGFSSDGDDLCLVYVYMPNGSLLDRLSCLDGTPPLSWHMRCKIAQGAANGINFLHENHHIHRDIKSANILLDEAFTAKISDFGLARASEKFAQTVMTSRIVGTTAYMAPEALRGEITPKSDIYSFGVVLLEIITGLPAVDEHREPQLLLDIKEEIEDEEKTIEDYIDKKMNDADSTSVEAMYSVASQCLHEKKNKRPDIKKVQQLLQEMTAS

Row | IC50 [nM] | Structure (SMILES)
1 | 0.2 | Cn1cc(NC(=O)c2csc3ncc(N4CCC[C@@H](N)C4)nc23)c(C(F)F)n1 [Example 24, 2[(3R)-3-aminopiperidin-1-yl] N-[3-(difluoromethyl)-1-methyl-1H-pyrazol-4-yl]thieno[2,3-b] pyrazine-7-carboxamide trifluoroacetate]
2 | 595 | O=C(Nc1ccccc1Cl)c1csc2ncc(N3CCCNCC3)nc12 [Example 91, N-(2-chlorophenyl)-2-(1,4-diazepan-1-yl)thieno[2,3-b]-pyrazine-7-carboxamide trifluoroacetate]
3 | 324 | O=C(Nc1ccsc1Br)c1csc2ncc(N3C[C@@H]4CC[C@H]3CN4)nc12 (single isomer, unassigned) [Example 63, N-(2-bromothiophen-3-yl)-2-[(1S,4S)- or (1R,4R)-2,5-diazabicylo[2.2.2]oct-2-yl]thieno[2,3-b] pyrazine-7-carboxamide trifluoroacetate]
4 | 558 | N#Cc1ccccc1NC(=O)c1csc2ncc(N3CCCNCC3)nc12 [Example 80, N-(2-Cyanophenyl)-2-(1,4-diazepan-1-yl)thieno[2,3-b]pyrazine-7-carboxamide]
5 | 33 | N#Cc1ccccc1NC(=O)c1csc2ncc(N3CCC[C@@H](N)C3)nc12 [Example 84, 2-[(3R)-3-aminopiperidin-1-yl]-N-(2-cyanophenyl)-thieno[2,3-b]-pyrazine-7-carboxamide trifluoroacetate]
6 | 2100 | N[C@@H]1[C@H](Nc2cnc3scc(C(=O)Nc4cscc4Br)c3n2)CCCC1(F)F [Example 68, 2-{[(1R,2R)-2-amino-3,3-difluorocyclohexyl]amino}-N-(4-bromothiophen-3-yl) thieno[2,3-b] pyrazine-7-carboxamide formate]
7 | 4 | Cn1cc(NC(=O)c2csc3ncc(NC4CCCCNC4)nc23)c(C(F)(F)F)n1 (centres unmarked) [Example 15, 2-(azepan-3-ylamino)-N-[1-methyl-3 (trifluoromethyl)-1H-pyrazol-4-yl]thieno[2,3-b] pyrazine-7-carboxamide trifluoroacetate]
8 | 292 | N#Cc1ccccc1NC(=O)c1csc2ncc(N3CCNCC3)nc12 [Example 86, N-(2-cyanophenyl)-2-piperazin-1-yl-thieno[2,3-b]-pyrazine-7-carboxamide trifluoroacetate]
9 | 21 | O=C(Nc1cscc1C(F)F)c1csc2ncc(N3C[C@H]4CC[C@@H]3CN4)nc12 (single isomer, unassigned) [Example 59, 2-[(1S,4S)- or (1R,4R)-2,5-diazabicyclo [2.2.2]oct-2-yl]-N-[4-(difluoromethyl)thiophen-3-yl] thieno[2,3-b] pyrazine-7-carboxamide trifluoroacetate]
10 | 146 | N#Cc1ccccc1NC(=O)c1csc2ncc(N[C@@H]3CCCC(F)(F)[C@@H]3N)nc12 [Example 105, 2-{[(1R,2R)-2-amino-3,3-difluorocyclohexyl]-amino}-N-(2-cyanophenyl)-thieno[2,3-b]-pyrazine-7-carboxamide trifluoroacetate]
11 | 50 | Cn1cc(NC(=O)c2csc3ncc(N[C@@H]4CCCC(F)(F)[C@@H]4N)nc23)c(C#N)n1 [Example 36, 2-{[(1R,2R)-2-amino-3,3-difluorocyclohexyl]amino}-N-(3-cyano-1-methyl-1H-pyrazol-4-yl]thieno[2,3-b] pyrazine-7-carboxamide trifluoroacetate]
12 | 104 | O=C(Nc1cscc1Cl)c1csc2ncc(N3C[C@H]4CC[C@@H]3CN4)nc12 (single isomer, unassigned) [Example 109, N-(4-chlorothiophen-3-yl)-2-[(1S,4S)- or (1R,4R)-2,5-diazabicyclo-[2.2.2]oct-2-yl]-thieno[2,3-b]-pyrazine-7-carboxamide trifluoroacetate]
13 | 7 | Cn1cc(NC(=O)c2csc3ncc(N[C@H]4CCCCNC4)nc23)c(C(F)(F)F)n1 (single isomer, unassigned) [Example 31, 2-[(3S)- or (3R)-azepan-3-ylamino]-N-[1-methyl-3-(trifluoromethyl)-1H-pyrazol-4-yl] thieno[2,3-b] pyrazine-7-carboxamide trifluoroacetate]
14 | 0.5 | N#Cc1sccc1NC(=O)c1csc2ncc(N[C@@H]3CCCC[C@@H]3N)nc12 [Example 77, 2-{[(1R,2S)-2-amino-cyclohexyl]amino}-N-(2-(cyanothiophen-3-yl)thieno[2,3-b]pyrazine-7-carboxamide trifluoroacetate]
15 | 14 | Cn1cc(NC(=O)c2csc3ncc(N4CCCNCC4)nc23)c(Cl)n1 [Example 18, N-(3-chloro-1-methyl-1H-pyrazol-4-yl)-2-(1,4-diazepan-1-yl)thieno[2,3-b] pyrazine-7-carboxamide trifluoroacetate]
16 | 213 | O=C(Nc1cscc1Br)c1csc2ncc(N3C[C@H]4CC[C@@H]3CN4)nc12 (single isomer, unassigned) [Example 49, N-(4-bromothiophen-3-yl)-2-[(1S,4S)- or (1R,4R)-2,5-diazabicyclo[2.2.2]oct-2-yl]thieno[2,3-b] pyrazine-7-carboxamide trifluoroacetate]
17 | 9 | N#Cc1ccccc1NC(=O)c1csc2ncc(N[C@@H]3CCCCNC3)nc12 (single isomer, unassigned) [Example 94, 2-[(3S)- or (3R)-azepan-3-ylamino]-N-(2-cyanophenyl)-thieno[2,3-b]-pyrazine-7-carboxamide trifluoroacetate]
18 | 330 | N[C@@H]1[C@H](Nc2cnc3scc(C(=O)Nc4cscc4C(F)F)c3n2)CCCC1(F)F [Example 67, 2-{[(1R,2R)-2-amino-3,3-difluorocyclohexyl]amino}-N-[4-(difluoromethyl)thiophen-3-yl] thieno[2,3-b] pyrazine-7-carboxamide trifluoroacetate]
19 | 0.8 | N[C@H]1CCCC[C@H]1Nc1cnc2scc(C(=O)Nc3ccccc3Cl)c2n1 [Example 92, 2-{(1R,2S)-2-aminocyclohexyl]-amino}-N-(2-chlorophenyl)-thieno[2,3-b]-pyrazine-7-carboxamide trifluoroacetate]
20 | 2070 | N[C@@H]1[C@H](Nc2cnc3scc(C(=O)Nc4ccsc4Br)c3n2)CCCC1(F)F [Example 71, 2-{[(1R,2R)-2-amino-3,3-difluorocyclohexyl]amino}-N-(2-bromothiophen-3-yl) thieno[2,3-b] pyrazine-7-carboxamide trifluoroacetate]
21 | 6 | Cn1cc(NC(=O)c2csc3ncc(N4CCNCC5(CC5)C4)nc23)c(C(F)F)n1 [Example 13, 2-(5,8-diazaspiro[2.6]non-5-yl)-N-[3-(difluoromethyl)-1-methyl-1H-pyrazol-4-yl]thieno[2,3-b] pyrazine-7-carboxamide trifluoroacetate]
22 | 0.7 | N[C@H]1CCCC[C@H]1Nc1cnc2scc(C(=O)Nc3cscc3Cl)c2n1 [Example 110, 2-{[(1R,2S)-2-aminocyclohexyl]-amino}-N-(4-chlorothiophen-3-yl)thieno[2,3-b]-pyrazine-7-carboxamide trifluoroacetate]

Row | Structure (SMILES) | IC50 [nM]
23 | Cn1cc(NC(=O)c2csc3ncc(N4CC5CCC(C4)N5)nc23)c(C(F)(F)F)n1 [Example 41, 2-(3,8-diazabicyclo[3.2.1]oct-3-yl)-N-[1-methyl-3-(trifluoromethyl)-1H-pyrazol-4-yl]thieno[2,3-b] pyrazine-7-carboxamide trifluoroacetate] | 18
